A word on the IC50: it is the concentration at which inhibition is half-maximal. For orientation: EC50 means the midpoint of the concentration-response curve.

Like-named read-outs stand apart in the source and are kept apart here. [UNA] = unlocked nucleic acid; m = 2'-O-methyl; r = 2'-OH (RNA)

The values below come from patent US20220265817A1, “THERAPEUTIC COMPOSITIONS AND METHODS FOR TREATING HEPATITIS B” (priority 2017, published 2022).

In one series the test system is HBV genome. In words: siRNA IC50 (Table A). Also on record: species or system Hepatitis B virus.
Series [1] has as its system HBV rcDNA in HepDE19 cells. In words: HepDE19 cell culture system, rcDNA quantitation using bDNA assay, MacSynergy II. Type of series: cell-based, human hepatoma cell line. The settings on record: for AVERAGE % INHIBITION: COMPOUND 3 0.000 μM. How it is done:
In vitro combination studies were conducted using the method of Prichard and Shipman (Prichard M N, and Shipman C Jr., Antiviral Research, 1990, 14 (4-5), 181-205; and Prichard M N, et. al., MacSynergy II). HepDE19 cell culture system is a HepG2 (human hepatocarcinoma) derived cell line that supports HBV DNA replication and cccDNA formation in a tetracycline (Tet)-regulated manner and produces HBV rcDNA and a detectable reporter molecule dependent on the production and maintenance of cccDNA (Guo et al 2007. J. Virol 81:12472-12484). HepDE19 (50,000 cells/well) were plated in 96 well collagen-coated tissue-culture treated microtiter plates in DMEM/F12 medium supplemented with 10% fetal bovine serum, 1% penicillin-streptomycin and 1 μg/ml tetracycline and incubated in a humidified incubator at 37° C. and 5% CO2 overnight. Next day, the cells were switched to fresh medium without tetracycline and incubated for 4 hrs at 37° C. and 5% CO2. […] The two inhibitors were tested both singly as well as in combinations in a checkerboard fashion such that each concentration of inhibitor A was combined with each concentration of inhibitor B to determine their combination effects on inhibition of rcDNA production. Following a 7 day-incubation of cells with compound combinations, the level of rcDNA present in the inhibitor-treated wells was measured using a Quantigene 2.0 bDNA assay kit (Affymetrix, Santa Clara, Calif.) with HBV specific custom probe set and manufacturers instructions. […] The RLU data from the single compound treated cells were analyzed using XL-Fit module in Microsoft Excel to determine EC50 values using a 4-parameter curve fitting algorithm. Concurrently, the effect of compounds on cell viability was assessed using replicate plates, plated at a density of 5,000 cells/well and incubated for 4 days, to determine the ATP content as a measure of cell viability using the cell-titer glo reagent (CTG; Promega Corporation, Madison, Wis.) as per manufacturer's instructions.
In vitro combination studies were conducted using the method of Prichard and Shipman (Prichard M N, Shipman C, Jr., Antiviral Res, 14, 181-205 (1990)). The HepDE19 cell line was developed as described in Guo et al. (Guo et al., J Virol, 81, 12472-12484 (2007)). It is a human hepatoma cell line stably transfected with the HBV genome, and which can express HBV pregenomic RNA and support HBV rcDNA (relaxed circular DNA) synthesis in a tetracycline-regulated manner. HepDE19 cells were plated in 96 well tissue-culture treated microtiter plates in DMEM/F12 medium supplemented with 10% fetal bovine serum+1% penicillin-streptomycin without tetracycline and incubated in a humidified incubator at 37° C. and 5% CO2 overnight. […] The two inhibitors were tested both singly as well as in combinations in a checkerboard fashion such that each concentration of inhibitor A was combined with each concentration of inhibitor B to determine their combination effects on inhibition of rcDNA production. Following a 48 hour-incubation, the level of rcDNA present in the inhibitor-treated wells was measured using a bDNA assay (Affymetrix) with HBV specific custom probe set and manufacturers instructions. […] Concurrently, the effect of inhibitor combinations on cell viability was assessed using replicate plates that were used to determine the ATP content as a measure of cell viability using the Cell-TiterGlo reagent (Promega) as per manufacturer's instructions.
In vitro combination studies were conducted using the method of Prichard and Shipman (1990) (Prichard M N, Shipman C, Jr. 1990. A three-dimensional model to analyze drug-drug interactions. Antiviral Res 14:181-205 AND Prichard M N. 1992. MacSynergy II, University of Michigan).

For series [2], the system named is D type HBV in primary human hepatocytes. In words: microbe, parasite or virus in culture. As to conditions: for AVERAGE % INHIBITION: COMPOUND 22 0 nM. Type of series: cell-based. The protocol: (§1) The mouse liver perfusion was applied to isolate PHHs. The isolated hepatocytes were further purified by Percoll. The cells were resuspended with culture media and seeded into the 96-well plates (6×10^4 cell/well) or 48-well plates (1.2×10^5 cell/well). The PHHs were infected with a D type HBV one day post seeding (day 1).
(§2) On day 2, the test compounds were diluted and added into the cell culture plates. The culture media containing the compounds were refreshed every other day. The cell culture supernatants were collected on day 8 for the HBV DNA and antigen determinations.
(§3) The compounds were tested at 7 concentrations, 3-fold dilution, in triplicate.
(§4) Two compounds were tested at 5×5 matrix, in triplicate plates.
DNA in the culture supernatants harvested on days 8 were isolated with QIAamp 96 DNA Blood Kit (Qiagen-51161). For each sample, 100 μl of the culture supernatants was used to extract DNA. The DNA was eluted with 100 μl, 150 μl or 180 μl of AE. HBV DNA in the culture supernatants was quantified by qPCR. The combination effect was analyzed by the MacSynergy software. The primers are described below.

For series [3], the system named is D type HBV in primary human hepatocytes (HBsAg). In words: microbe, parasite or virus in culture. In kind it is cell-based. As to conditions: for AVERAGE % INHIBITION: COMPOUND 22 0 nM. The protocol: as §1, §2, §3, §4
(§5) HBsAg/HBeAg in the culture supernatants harvested on days 8 were measured by the HBsAg/HBeAg ELISA kit (Autobio) according to the manual. The samples were diluted with PBS to get the signal in the range of the standard curve. The inhibition rates were calculated with the formula below. The combination effect was analyzed by the MacSynergy software.
% Inh. HBsAg=[1-HBsAg quantity of sample/HBV quantity of DMSO control]×100.

The test system of series [4] is D type HBV in primary human hepatocytes (HBeAg). Briefly: microbe, parasite or virus in culture. Type of series: cell-based. How it is done: as §1, §2, §3, §4, §5
% Inh. HBeAg=[1-HBeAg quantity of sample/HBV quantity of DMSO control]×100.

The mark [5] stands for this setting: Hepatitis B virus, Hepatocyte, read-out: AVERAGE % […] DNA.
Where [6] appears, read: Hepatitis B virus, Hepatocyte, read-out: Inhibitor A EC50.
Setting [7] is: Hepatitis B virus, Hepatocyte, read-out: Inhibitor EC50.
Where [8] appears, read: Hepatitis B virus, HepDE19, read-out: AVERAGE % INHIBITION
Where [9] appears, read: Hepatitis B virus, Hepatocyte, read-out: AVERAGE % INHIBITION HBsAg.

Take “11m: siRNA duplex SEQ ID NO: 21 and 22 targeting the HBV genome (chain 1 GCCGAUCCAUACUGCGGAAUU; chain 2 UUCCGCAGUAUGGAUCGGCUU; chain 1: sugars from the 5' end [UNA]rrmrmrrrrrrmmrmmrrr[UNA], backbone not given here; chain 2: sugars from the 5' end rrrrrrrmrrrrmrrrrmrrr, backbone not given here) [Compound 11m]”: in the series on HBV genome, the half-maximal inhibitory concentration (IC50) came to 0.31 nM. In other words, the sub-nanomolar range.
In turn, “5m: siRNA duplex SEQ ID NO: 9 and 10 targeting the HBV genome (chain 1 CCGUGUGCACUUCGCUUCAUU; chain 2 UGAAGCGAAGUGCACACGGUU; chain 1: sugars from the 5' end [UNA]rrrmmrrrrrmrrrmrrrr[UNA], backbone not given here; chain 2: sugars from the 5' end r11 m1 r5 m1 r3, backbone not given here) [Compound 5m]” returned an IC50 in the series with HBV genome of 0.06 nM.
Molecule “14m: siRNA duplex SEQ ID NO: 27 and 28 targeting the HBV genome (chain 1 GCUCAGUUUACUAGUGCCAUU; chain 2 UGGCACUAGUAAACUGAGCUU; chain 1: sugars from the 5' end [UNA]rmrrmrrrrrmrmrrrrrr[UNA], backbone not given here; chain 2: sugars from the 5' end r14 m1 r6, backbone not given here) [Compound 14m]” had a half-maximal inhibitory concentration (IC50) with HBV genome of 0.16 nM.
Consider `CCOC(=O)C1=C(CN2CCOCC2)NC(c2nccs2)=NC1c1ccc(F)cc1Br` (centres unmarked) [GLS4], for which the “AVERAGE % INHIBITION” value in series [1] (GLS-4 0.008 μM) is on record as −1.17%; in series [1] (GLS-4 0.016 μM) it was −5.82%; in series [1] (GLS-4 0.031 μM), 7.03%; in series [1] (GLS-4 0.063 μM) it was 38.95%; in series [1] (GLS-4 0.125 μM), 77.82%; in series [1] (GLS-4 0.250 μM), 94.65%. The “AVERAGE % INHIBITION” value in series [1] (GLS-4 0.500 μM) worked out at 97.48%; in series [1] (GLS-4 1.000 μM), 98.51%; in series [1] (GLS-4 2.000 μM), 98.22%. Also, the concentration giving a half-maximal response (EC50) in series [1] (rcDNA, bDNA assay, DE19 cells, read-out: Inhibitor B EC50) turned out to be 77 nM.
Turning to `CC(C)OC(=O)[C@H](C)N[P@](=O)(CO[C@H](C)Cn1cnc2c(N)ncnc21)Oc1ccccc1` [TAF, tenofovir alafenamide, reference compound], the inhibition at 50 pM in series [2] (setting [5]) is -8.77%; in series [3] (setting [9]) it was -7.35%. Moreover, the results for the inhibition at 0.00012 µM in series [2] (setting [5]) and in series [3] (setting [9]) were 6.36% and 23%, respectively. In addition, the inhibition at 0.00037 µM in series [2] (setting [5]) worked out at 11.6%; in series [3] (setting [9]) it was 7.04%. For the same molecule, the values for the inhibition at 0.00041 µM in series [2] (setting [5]) and in series [3] (setting [9]) were 28.8% and 11.3%, respectively. For the same molecule, the inhibition at 0.00123 µM was found to be 63.4% in series [2] (setting [5]) and 11% in series [3] (setting [9]). Besides, the inhibition at 0.00333 µM in series [2] (setting [5]) is 42.6%; in series [3] (setting [9]) it was 16.1%. In addition, the inhibition at 0.0037 µM in series [2] (setting [5]) is 78.3%; in series [3] (setting [9]), -6.72%. Further, the inhibition at 0.01 µM in series [2] (setting [5]) worked out at 43.3%; in series [3] (setting [9]), 6.38%. The EC50 was 0.405 nM in series [2] (setting [6]); 0.405 nM in series [2] (setting [7]); 44.5 nM in series [1] (Hepatitis B virus, HepDE19, read-out: Inhibitor B EC50); more than 100 nM in series [3] (setting [6]); more than 100 nM in series [3] (setting [7]); more than 100 nM in series [4] (setting [7]). In addition, the “AVERAGE % INHIBITION” value is −2.6% in series [2] (TAF 0.12 nM); −1.92% in series [2] (TAF 0.37 nM); 40.16% in series [2] (TAF 3.33 nM); 50.21% in series [2] (TAF 10.00 nM); 4.95% in series [2] (TAF […]); 29.82% in series [3] (TAF 0.1234568 nM). For the same molecule, the “AVERAGE % INHIBITION” value is recorded as 10.78% in series [3] (TAF 0.3703704 nM); 20.81% in series [3] (TAF 1.1111111 nM); 9.06% in series [3] (TAF 3.3333333 nM); 7.97% in series [3] (TAF 10 nM); 1.17% in series [4] (TAF 0.05 nM, COMPOUND 3 0.00 nM); 26.61% in series [4] (TAF 0.12 nM, COMPOUND 22 0 nM). In addition, the “AVERAGE % INHIBITION” value is listed as −2.78% in series [4] (TAF 0.14 nM, COMPOUND 3 0.00 nM); 9.9% in series [4] (TAF 0.37 nM, COMPOUND 22 0 nM); 1.76% in series [4] (TAF 0.41 nM, COMPOUND 3 0.00 nM); 9.91% in series [4] (TAF 1.23 nM, COMPOUND 3 0.00 nM); 19.69% in series [4] (TAF 3.33 nM, COMPOUND 22 0 nM); 11.87% in series [4] (TAF 3.70 nM, COMPOUND 3 0.00 nM). For the same molecule, the “AVERAGE % INHIBITION” value in series [4] (TAF 10.00 nM, COMPOUND 22 0 nM) came to 22.85%; in series [4] (TAF […], COMPOUND 22 0 nM), 22.56%. In addition, the inhibition at 0.000781 µM in series [1] (setting [8]) was -4.76%. For the same molecule, the inhibition at 0.001563 µM in series [1] (setting [8]) was 3.49%. The inhibition at 0.003125 µM in series [1] (setting [8]) was 0.6%. Besides, the inhibition at 0.00625 µM in series [1] (setting [8]) was determined as 10.6%. In series [1] (setting [8]), the inhibition at 0.0125 µM came out at 28.6%. Further, the inhibition at 0.025 µM in series [1] (setting [8]) is 20%. Moreover, the inhibition at 0.05 µM in series [1] (setting [8]) was 53.2%. The inhibition at 0.1 µM in series [1] (setting [8]) came to 77.6%. Besides, the inhibition at 0.2 µM in series [1] (setting [8]) turned out to be 89.9%. In addition, the inhibition at 0.00014 µM in series [3] (setting [9]) stood at 12.8%.
